Assay results from US9795646B2, “Boswellia oil, its fractions and compositions for enhancing brain function” (LAILA NUTRACEUTICALS, priority 2010, dated 2017).

Assays:
Format in all cases: cell-based
[1] = tested on: RAW 264.7 mouse macrophages; test: Assay for measuring reactive oxygen species (ROS), DCFH-DA, H2O2; conditions: H2O2 treated RAW 264.7 cells
Experimental: Formation of ROS was measured using of the fluorescent probe DCFH-DA. The method is based on the incubation of the RAW 264.7 mouse macrophages with DCFH-DA, which diffuses passively through the cellular membrane. Intracellular esterase activity results in the formation of DCFH, which emits fluorescence when oxidized to 20, 70-dichlorofluorescein (DCF). Briefly, the cells (final concentration 2×10^6/ml suspension) were incubated with DCFH-DA ([…]) in HEPES-buffered (20 mM) HBSS (CaCl2 1.26 mM, KCL 5.37 mM, KH2PO4 0.44 mM; MgCl2
0.49 mM, MgSO4 0.41 mM, NaCl 140 mM, NaHCO3 4.17 mM, Na2HPO4 0.34 mM) with glucose (5 mM) at 37° C. for 15 min. Following centrifugation, the extracellular buffer with DCFH-DA was exchanged with fresh buffer and the suspension was mixed gently. […] Fluorescence was recorded using excitation wavelength 485 nm, emission wavelength 530 nm in a Modulus luminescence spectrometer (Turner Biosystems, USA) for 120 min. Results are calculated as area under the curve (AUC) and the percentage of inhibition of intracellular ROS generation was calculated from the cultures treated with H2O2.

[2] = target: T1, acetylcholine esterase (AChE) (Rattus norvegicus, UniProt P37136); test: Acetylcholine esterase inhibitory activity in β-amyloid peptide induced PC 12 cells; conditions: Beta Amyloid induced PC12 cells, Table 8
T1 construct: The cell extracts were used as samples for measuring the acetylcholine esterase (AChE) activity; endogenous in cells; host or cells: rat pheochromocytoma PC 12 cells, induced with β-amyloid peptide
T1 sequence (P37136 32-614): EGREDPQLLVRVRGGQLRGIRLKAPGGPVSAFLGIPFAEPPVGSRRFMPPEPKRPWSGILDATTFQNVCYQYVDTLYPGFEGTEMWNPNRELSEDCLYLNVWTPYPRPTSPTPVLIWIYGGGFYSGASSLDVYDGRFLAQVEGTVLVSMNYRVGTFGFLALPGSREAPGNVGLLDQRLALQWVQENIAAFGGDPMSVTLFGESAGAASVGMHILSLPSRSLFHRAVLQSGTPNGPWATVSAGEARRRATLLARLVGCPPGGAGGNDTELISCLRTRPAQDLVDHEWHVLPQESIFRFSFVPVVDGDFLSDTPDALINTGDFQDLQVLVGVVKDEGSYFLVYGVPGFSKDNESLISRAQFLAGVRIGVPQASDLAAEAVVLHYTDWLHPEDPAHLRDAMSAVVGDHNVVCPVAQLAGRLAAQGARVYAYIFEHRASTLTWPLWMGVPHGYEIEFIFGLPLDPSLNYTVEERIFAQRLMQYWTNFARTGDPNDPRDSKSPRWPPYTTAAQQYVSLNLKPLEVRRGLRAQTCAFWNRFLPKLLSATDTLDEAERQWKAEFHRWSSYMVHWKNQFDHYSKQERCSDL
Experimental: As a part of developing new agents for improving brain/mental function and alleviating disease conditions related to cognition and memory deficits, a large number of plant extracts have been screened for their inhibitory property on Acetylcholinesterase enzyme activity. The assay was performed in vitro by the method of Ellman et al., with minor modifications, using acetylthiocholine iodide as a substrate (Lee J. H., et. al. Arch Pharm Res 2004, 27(1): 53-56). […] Its acetylcholinesterase inhibitory activity was also evaluated by a cell based in vitro assay in Rat pheochromocytoma PC 12 cells. […] Rat pheochromocytoma PC 12 cells were equally distributed with phenol red free Dulbecco's modified Eagle's red medium (DMEM) (Sigma Life Science, USA) containing 10% fetal bovine serum (FBS) in 24-well plate. […] Thereafter, cells were induced with 1 μg/mL of β-amyloid peptide (Calbiochem, USA) for 24 h at 37° C. After 24 h, cells were collected and washed twice with 1×PBS by centrifugation at 1200 rpm for 5 min at 4° C. The cell extracts were prepared in solubilization buffer and the cell lysates were analyzed for acetylcholine esterase (AChE) activity.
The inhibitory property on the enzyme activity was assessed in β-amyloid peptide induced-rat pheochromocytoma PC 12 cells. Rat pheochromocytoma PC 12 cells were equally distributed with phenol red free Dulbecco's modified Eagle's red medium (DMEM) (Sigma Life Science, USA) containing 10% fetal bovine serum (FBS) in 24-well plate. […] Thereafter, cells were induced with 1 μg/mL of β-amyloid peptide (Calbiochem, USA) for 24 h at 37° C. After 24 h, cells were collected and washed twice with 1×PBS by centrifugation at 1200 rpm for 5 min at 4° C. Cell extracts were prepared in solubilization buffer (10 mM Tris, pH 7.2; 100 mM NaCl, 50 mM MgCl2, 1% Triton X-100). The cell extracts were used as samples for measuring the acetylcholine esterase (AChE) activity.
Cell extract samples (100 μl) were dispensed into each well of 96-well microtitre plate. Fifty micro liters of DTNB (Dithiobisnitro benzoate) solution was added to each well and incubated for 5 min at room temperature. After incubation, 50 μl of acetyl choline iodide solution was added to each well and absorbance was read immediately at 405 nm for 12 min at 2 min intervals. A standard curve was constructed by using serial concentrations of acetyl cholinesterase (0-100 mU). Total protein present in 100 μl aliquot of cell extract was calculated by Bradford method and the enzyme activity was normalized and expressed as unit activity per milligram of protein.

[3] = tested on: IMR32 human neuroblastoma cells; test: MTT cell proliferation assay, protection from oxidative stress induced cytotoxic damage; conditions: vehicle control 100.00, H2O2 alone 78.71
Experimental: Briefly, IMR32 human neuroblastoma cells were cultivated in Dulbecco's modified Eagle's red medium (DMEM) (Sigma Life Science, USA) containing 10% fetal bovine serum (FBS). Equal number of IMR32 cells was seeded in to each well of 96 well microplate and incubated at 37° C. with 5% CO2. […] Control wells were supplemented with 0.05% DMSO. After 72 h of treatment, equal volume of MTT reagent (R&D Systems, USA) was added to each well and incubated for 4 h. Thereafter, 50 μl of solublization buffer (R&D Systems, USA) was added to each well to solubilize the colored formazan crystals produced by the reduction of MTT. After 24 h, the optical density was measured at 550 nm using microplate reader (Bio-Rad, USA). In each assay, the vehicle control and the treatments were done in quadruplicates. The average OD obtained in the vehicle control wells is considered as the cell proliferation index of 100.

## COc1c(O)cc2oc3cc(O)c(CC=C(C)C)c(O)c3c(=O)c2c1CC=C(C)C [α-mangostin]
[1]
  Inhibition of Reactive Oxygen Species (ROS) generation (IC50): 49.817 µg/mL
[2]; 100 ng/ml
  % inhibition in Acetylcholinesterase (AChE) activity: 26.83%
[2]; 250 ng/ml
  % inhibition in Acetylcholinesterase (AChE) activity: 29.48%
[3]; 10 ng/ml with 250 uM H2O2, 72 h
  Cell proliferation Index: 80.32
[3]; 25 ng/ml with 250 uM H2O2, 72 h
  Cell proliferation Index: 86.78
[3]; 50 ng/ml with 250 uM H2O2, 72 h
  Cell proliferation Index: 87.21
[3]; 100 ng/ml with 250 uM H2O2, 72 h
  Cell proliferation Index: 91.78
